Test results: US10828269B2, “Reducing muscle atrophy by administering astaxanthin” (FUJI CHEMICAL INDUSTRIES CO., LTD., priority 2004, dated 2020)

How the values were obtained:
diabetic db/db mice = conditions: Naito Y. et al, Redox Rep 2002; cited from earlier work
[1] = tested on: very low density lipoprotein receptor; assay: GENEchip mRNA expression in gastrocnemius; assay type: in vivo, rat; conditions: probe 1369098_at
Protocol: (§1) After the period of test breeding, kidney was removed and frozen at −80° C. Using an LM200 system (Olympus Corporation), the renal glomerulus was cut from kidney of mice while keeping low temperature. tRNA of renal glomerulus was extracted using tRNA extraction regent “Isogen” (produced by Nippon Gene Co., Ltd.), and then preparation of cRNA and hybridization were performed according to the Affymetrix GeneChip Eukaryotic Small Sample Target Labeling Assay Ver. II.
(§2) (1) Synthesis of first strand cDNA: 1 μL of total RNA solution and 1 of 5 μM T7-Oligo(dT) primer were mixed, heated at 70° C. for 6 minutes, and then cooled at 4° C. for 2 minutes. 3 μL of RT_Premix_1 (1.5 μL DEPC-treated water, 4 μL 5× First strand Buffer, 2 μL DTT (0.1 M), 1.5 μL dNTP Mix (10 mM), 1 μL RNase inhibitor (40 U/μL), and 2 μL Super-Script II (200 U/μL)) was added and reverse transcribed at 42° C. for 1 hour. The sample was heated at 70° C. for 10 minutes to inactivate Super Script II, and then cooled to 4° C. (2) Synthesis of second strand cDNA: 32.5 μl of SS_Premix_1 (91 μL DEPC-treated water, 30 μL 5× Second Strand Buffer, 3 μL dNTP (10 mM), 1 μL E. coli DNA ligase (10 U/μL); 4 μL E. coli DNA polymerase (10 U/μL), and 1 μL RNase H (2 U/μL)) was added to the first strand cDNA solution and allowed to react for 2 hours at 16° C. (3) To the resulting cDNA, was added 1 μL T4 DNA polymerase (5 U/μl) and allowed to react for 10 minutes at 16° C., and purified by ethanol precipitation. (4) In vitro transcription: To the dried double-stranded cDNA pellet, was added 10 μL of reagents (4 μL DEPC-treated water, 4 μL premixed NTPs, 1 μL 10× reaction buffer, and 1 μL 10× enzyme mix), and allowed to react at 37° C. in a water bath for 6 hours. (5) First cycle cRNA was purified using the RNeasy Mini Kit in accordance with the protocol in the handbook (QIAGEN). (6) Subsequently, for the amplification and labeling, the cRNA sample was mixed with random primers (0.2 μg/μL), treated at 70° C. for 10 minutes, cooled on ice for 2 minutes, 5 μL of RT_Premix_2 (5× First Strand Buffer, DTT (0.1 M), dNTP mix (10 mM), RNase inhibitor (40 U/μL), and SuperScript II (200 U/μL) was added, and allowed to react at 42° C. for 1 hour. (7) Next, Second Sstrand cDNA synthesis was carried out by adding 5 μM T7-Oligo(dT) promoter treating at 70° C. for 6 minutes, cooling at 4° C., and adding 62 μL of SS_Premix_2 (43 μL it DEPC-treated water, 15 μL 5× Second Strand Buffer, 1.5 μL dNTP mix (10 mM), and 2 μL E. coli DNA polymerase (10 U/μL)). (8) To the resulting cDNA, was treated added 1 μL of T4 DNA polymerase (5 U/μL), allowed to react at 16° C. for 10 minutes, and purified by ethanol precipitation. (9) To perform in vitro transcription and labeling with the ENZO BioArray High Yield RNA Transcript Labeling Kit, 40 μL of reagents (22 μL DEPC-treated solution, 4 μL 10×HY reaction buffer, 4 μL 10× biotin-labeled ribonucleotides, 4 μL 10×DTT, 4 μL 10× RNase to inhibition mix, and 2 μL 20× T7 RNA polymerase) were added, and allowed to react at 37° C. for 4 hours. (10) Labeled cRNA target was purified with RNeasy columns. (11) The fragmentation and hybridization were performed according to “GeneChip Expression Analysis Technical Manual”.
(§3) The prepared labeled cRNA was hybridized to a GeneChip “mouse Expression Set 430A, representing a total of 22,690 mouse transcripts” (Affymetrix). For data analysis, the GeneChip Analysis Suite Ver. 5.1 (Affymetrix) was used. All microarrays were scaled to a target intensity of 1000 and were compared with background, noise, and overall staining intensity. Differentially expressed transcripts were identified by algorithms of the software y Affymetrix.
(§4) 9-week-old Wistar male rats were bred each being fed a normal diet for breeding and water ad libitum under the conditions with a 12 hours light-dark cycle at a temperature of 21° C. to 25° C. and were accustomed to the environment in advance. […]

[2] = tested on: murine thymoma viral (v-akt) oncogene homolog 2; assay: GENEchip mRNA expression in gastrocnemius; assay type: in vivo, rat; conditions: probe 1387353_at
Protocol: as §1, §2, §3, §4

[3] = tested on: transforming growth factor, beta 2; assay: GENEchip mRNA expression in gastrocnemius; assay type: in vivo, rat; conditions: probe 1387172_a_at
Protocol: as §1, §2, §3, §4

neuronatin = assay: GENEchip mRNA expression in gastrocnemius; assay type: in vivo, rat; conditions: probe 1369999_a_at
Protocol: [The source words this procedure for another organism and reports this organism under the same test.] as §1, §2, §3, §4

[4] = tested on: ATP-binding cassette, sub-family B (MDR/TAP), member; assay: GENEchip mRNA expression in gastrocnemius; assay type: in vivo, rat; conditions: probe 1369161_at
Protocol: as §1, §2, §3, §4

[5] = tested on: Protein phosphatase 3, catalytic subunit gamma isoform; assay: GENEchip mRNA expression in gastrocnemius; assay type: in vivo, rat; conditions: probe 1398469_at
Protocol: [The source words this procedure for another organism and reports this organism under the same test.] as §1, §2, §3, §4

[6] = denervated left leg gastrocnemius, astaxanthin group vs control group
[7] = denervated left leg gastrocnemius, astaxanthin-administered group
[8] = right leg (control) gastrocnemius, astaxanthin group vs control group
[9] = right leg (control) gastrocnemius, astaxanthin-administered group

Structure (SMILES): CC1=C(/C=C/C(C)=C/C=C/C(C)=C/C=C/C=C(C)/C=C/C=C(C)/C=C/C2=C(C)C(=O)C(O)CC2(C)C)C(C)(C)CC(O)C1=O (stereo not drawn) [astaxanthin, 3,3′-dihydroxy-β,β-carotene-4,4′-dione]
- blood glucose level (diabetic db/db mice): reduces blood glucose level
- diabetic nephropathy (diabetic db/db mice): has an effect on the improvement of diabetic nephropathy
- gene expression intensity ratio ad/nd [1, 6]: 1.49
- luminescence intensity ad [1, 7]: 318
- gene expression intensity ratio ac/nc [1, 8]: 1.00
- luminescence intensity ac [1, 9]: 500.5
- gene expression intensity ratio ad/nd [2, 6]: 0.67
- luminescence intensity ad [2, 7]: 1042.6
- gene expression intensity ratio ac/nc [2, 8]: 0.83
- luminescence intensity ac [2, 9]: 715.4
- gene expression intensity ratio ad/nd [3, 6]: 0.57
- luminescence intensity ad [3, 7]: 677.8
- gene expression intensity ratio ac/nc [3, 8]: 1.06
- luminescence intensity ac [3, 9]: 479.9
- gene expression intensity ratio ad/nd (neuronatin; [6]): 0.61
- luminescence intensity ad (neuronatin; [7]): 640.7
- gene expression intensity ratio ac/nc (neuronatin; [8]): 0.79
- luminescence intensity ac (neuronatin; [9]): 106.4
- gene expression intensity ratio ad/nd [4, 6]: 1.41
- luminescence intensity ad [4, 7]: 306.9
- gene expression intensity ratio ac/nc [4, 8]: 1.34
- luminescence intensity ac [4, 9]: 677.1
- gene expression intensity ratio ad/nd [5, 6]: 1.90
- luminescence intensity ad [5, 7]: 333.1
- gene expression intensity ratio ac/nc [5, 8]: 1.09
- luminescence intensity ac [5, 9]: 523.6
